Measured values: patent US20240391862A1, “(1,4,5-TRISUBSTITUTED-1H-PYRAZOL-3-YL)OXY-2-ALKOXY ALKYL ACIDS AND THEIR DERIVATIVES, THEIR SALTS AND THEIR USE AS HERBICIDAL AGENTS” (Bayer AKtiengesellschaft, priority 2021, published 2024)

What was measured:
[1] = test system: GLXMA; experiment: Post-emergence herbicidal effect and crop plant compatibility, greenhouse pot test; assay type: in vivo, Glycine max; settings: visual rating about 3 weeks after treatment, crop plant
Excerpt: (§1) • ALOMY: Alopecurus myosuroides SETVI: Setaria viridis • AVEFA: Avena fatua POLCO: Fallopia convolvulus • AMARE: Amaranthus retroflexus ECHCG: Echinochloa crus-galli • LOLRJ: Lolium rigidum STEME: Stellaria media • VERPE: Veronica persica MATIN: Tripleurospermum inodorum • DIGSA: Digitaria sanguinalis ABUTH: Abutylon threophrasti • TRZAS: Triticum aestivum VIOTR: Viola tricolor • BRSNW: Brassica napus ZEAMX: Zea mays • PHBPU: Ipomoea purpurea GLXMA: Glycine max • ORYSA: Oryza sativa HORMU: Hordeum murinum
(§2) Seeds of monocotyledonous and dicotyledonous weeds and crop plants are placed in sandy loam in plastic or organic planting pots, covered with soil and cultivated in a greenhouse under controlled growth conditions. 2 to 3 weeks after sowing, the trial plants are treated at the one-leaf stage. The compounds of the invention, formulated in the form of wettable powders (WP) or as emulsion concentrates (EC), are then sprayed onto the green parts of the plants as aqueous suspension or emulsion with addition of 0.5% additive at a water application rate of 600 l/ha (converted). After the test plants have been kept in the greenhouse under optimum growth conditions for about 3 weeks, the activity of the preparations is rated visually in comparison to untreated controls. For example, 100% activity=the plants have died, 0% activity=like control plants.
(§3) Tables 20a to 38c below show the effects/crop compatibilities of selected compounds of the general formula (I) on various harmful plants at an application rate corresponding to 20 to 320 g/ha, which were obtained by the trial procedure specified above.

[2] = test system: ZEAMX; experiment: as above; assay type: in vivo, Zea mays; settings: one-leaf stage, rated visually after about 3 weeks vs untreated controls
Outline: (§4)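 Greenhouse pot test: weeds and crops sown in sandy loam, sprayed post-emergence at one-leaf stage (2–3 weeks after sowing) with WP or EC formulations plus 0.5% additive at 600 l/ha water, rates 20–320 g/ha. Visual rating about 3 weeks later versus untreated controls (100% = dead, 0% = as control).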

[3] = test system: GLXMA; experiment: Pre-emergence herbicidal effect and crop plant compatibility, greenhouse pot test; assay type: in vivo, Glycine max; settings: scored visually after about 3 weeks vs untreated controls
Excerpt: (§5) Seeds of monocotyledonous and dicotyledonous weed plants and crop plants are placed in plastic or organic planting pots and covered with soil. The compounds of the invention, formulated in the form of wettable powders (WP) or as emulsion concentrates (EC), are then applied to the surface of the covering soil as aqueous suspension or emulsion with addition of 0.5% additive at a water application rate equivalent to 600 l/ha. After the treatment, the pots are placed in a greenhouse and kept under good growth conditions for the trial plants. After about 3 weeks, the effect of the preparations is scored visually in comparison with untreated controls as percentages. For example, 100% activity=the plants have died, 0% activity=like control plants.
(§6) Tables 1a to 19c below show the effects/crop compatibilities of selected compounds of the general formula (I) on various harmful plants at an application rate corresponding to 20 to 320 g/ha, which were obtained by the trial procedure specified above.
as §1

[4] = test system: ORYSA; experiment: Post-emergence herbicidal effect and crop plant compatibility, greenhouse pot test; assay type: in vivo, Oryza sativa; settings: 80 g/ha, visual rating about 3 weeks after treatment, crop plant
Excerpt: as §1, §2, §3

[5] = test system: TRZAS; experiment: Pre-emergence herbicidal effect and crop plant compatibility, greenhouse pot test; assay type: in vivo, Triticum aestivum; settings: scored visually after about 3 weeks vs untreated controls
Excerpt: as §5, §6, §1

[6] = test system: ZEAMX; experiment: as above; assay type: in vivo, Zea mays; settings: scored visually after about 3 weeks vs untreated controls
Excerpt: as §5, §6, §1

[7] = test system: BRSNW; experiment: as above; assay type: in vivo, Brassica napus; settings: scored visually after about 3 weeks vs untreated controls
Excerpt: as §5, §6, §1

[8] = test system: TRZAS; experiment: Post-emergence herbicidal effect and crop plant compatibility, greenhouse pot test; assay type: in vivo, Triticum aestivum; settings: visual rating about 3 weeks after treatment, crop plant
Outline: as §4

[9] = test system: ALOMY; experiment: Pre-emergence herbicidal effect, greenhouse pot test; assay type: in vivo, Alopecurus myosuroides; settings: scored visually after about 3 weeks vs untreated controls
Excerpt: as §5, §6, §1

[10] = test system: SETVI; experiment: as above; assay type: in vivo, Setaria viridis; settings: Setaria viridis, 504 h, 320 g/ha, scored visually after about 3 weeks vs untreated controls, read-out: Pre-emergence effect at 320 g/ha against SETVI in %
Excerpt: as §5, §6, §1

[11] = test system: MATIN; experiment: as above; assay type: in vivo, Tripleurospermum inodorum; settings: scored visually after about 3 weeks vs untreated controls
Excerpt: as §5, §6, §1

[12] = test system: VIOTR; experiment: as above; assay type: in vivo, Viola tricolor; settings: scored visually after about 3 weeks vs untreated controls
Excerpt: as §5, §6, §1

[13] = test system: AVEFA; experiment: as above; assay type: in vivo, Avena fatua; settings: scored visually after about 3 weeks vs untreated controls
Excerpt: as §5, §6, §1

[14] = test system: AMARE; experiment: as above; assay type: in vivo, Amaranthus retroflexus; settings: scored visually after about 3 weeks vs untreated controls
Excerpt: as §5, §6, §1

[15] = test system: VERPE; experiment: as above; assay type: in vivo, Veronica persica; settings: scored visually after about 3 weeks vs untreated controls
Excerpt: as §5, §6, §1

[16] = test system: LOLRI; experiment: as above; assay type: in vivo, Lolium rigidum; settings: scored visually after about 3 weeks vs untreated controls
Excerpt: as §5, §6, §1

[17] = test system: ABUTH; experiment: as above; assay type: in vivo, Abutilon theophrasti; settings: 320 g/ha, scored visually after about 3 weeks vs untreated controls
Excerpt: as §5, §6, §1

[18] = test system: ECHCG; experiment: as above; assay type: in vivo, Echinochloa crus-galli; settings: scored visually after about 3 weeks vs untreated controls
Excerpt: as §5, §6, §1

[19] = test system: DIGSA; experiment: as above; assay type: in vivo, Digitaria sanguinalis; settings: 320 g/ha, scored visually after about 3 weeks vs untreated controls
Excerpt: as §5, §6, §1

[20] = test system: PHBPU; experiment: as above; assay type: in vivo, Ipomoea purpurea; settings: scored visually after about 3 weeks vs untreated controls
Excerpt: as §5, §6, §1

[21] = test system: POLCO; experiment: as above; assay type: in vivo, Fallopia convolvulus; settings: scored visually after about 3 weeks vs untreated controls
Excerpt: as §5, §6, §1

[22] = test system: MATIN; experiment: Post-emergence herbicidal effect, greenhouse pot test; assay type: in vivo, Tripleurospermum inodorum; settings: Tripleurospermum inodorum, 504 h, 320 g/ha, read-out: Post-emergence effect against MATIN in %
Outline: as §4

[23] = test system: ALOMY; experiment: as above; assay type: in vivo, Alopecurus myosuroides; settings: Alopecurus myosuroides, 504 h, 320 g/ha, visual rating about 3 weeks after treatment, read-out: Post-emergence effect against ALOMY
Outline: as §4

[24] = test system: VERPE; experiment: as above; assay type: in vivo, Veronica persica; settings: Veronica persica, 504 h, 320 g/ha, read-out: Post-emergence effect against VERPE in %
Outline: as §4

[25] = test system: ORYSA; experiment: Pre-emergence herbicidal effect and crop plant compatibility, greenhouse pot test; assay type: in vivo, Oryza sativa; settings: scored visually after about 3 weeks vs untreated controls
Excerpt: as §5, §6, §1

[26] = test system: ECHCG; experiment: Post-emergence herbicidal effect, greenhouse pot test; assay type: in vivo, Echinochloa crus-galli; settings: Echinochloa crus-galli, 504 h, 320 g/ha, read-out: Post-emergence effect against ECHCG in %
Outline: as §4

[27] = test system: SETVI; experiment: as above; assay type: in vivo, Setaria viridis; settings: Setaria viridis, 504 h, 320 g/ha, read-out: Post-emergence effect against SETVI in %
Outline: as §4

CCOC(=O)C(OCC)Oc1nn(-c2ccc(Cl)cc2F)c(-c2ccc(F)cc2F)c1Br (stereo not drawn) [Example I-09]
Post-emergence effect against GLXMA ([1]; 80 g/ha): 10% | Post-emergence effect against GLXMA ([1]; 320 g/ha): 20% | Post-emergence effect at 80 g/ha against ZEAMX in % ([2]; 80 g/ha): 0% | Post-emergence effect at 320 g/ha against ZEAMX in % ([2]; 320 g/ha): 0% | Pre-emergence effect at 80 g/ha against GLXMA in % [3]: 10% | Pre-emergence effect at 320 g/ha against GLXMA in % ([3]; 320 g/ha): 10% | Post-emergence effect against ORYSA [4]: 10% | Pre-emergence effect at 80 g/ha against TRZAS in % [5]: 0% | Pre-emergence effect at 320 g/ha against TRZAS in % [5]: 20% | Pre-emergence effect at 320 g/ha against ZEAMX in % [6]: 10% | Pre-emergence effect at 80 g/ha against BRSNW in % ([7]; 80 g/ha): 0% | Pre-emergence effect at 320 g/ha against BRSNW in % ([7]; 320 g/ha): 0% | Post-emergence effect against TRZAS ([8]; 80 g/ha): 0% | Post-emergence effect against TRZAS ([8]; 320 g/ha): 0%

COC(Oc1nn(-c2cc(F)ccc2F)c(-c2cncc(F)c2)c1C1CC1)C(=O)O (stereo not drawn) [Example I-34]
Pre-emergence effect at 80 g/ha against ALOMY in % ([9]; 80 g/ha): 90% | Pre-emergence effect at 320 g/ha against ALOMY in % ([9]; 320 g/ha): 100% | pest or weed control at 320 g/ha [10]: 90% | Pre-emergence effect at 80 g/ha against MATIN in % ([11]; 80 g/ha): 90% | pest or weed control at 320 g/ha ([11]; Tripleurospermum inodorum, 504 h, 320 g/ha, read-out: Pre-emergence effect at 320 g/ha against MATIN in %): 90% | Pre-emergence effect at 20 g/ha against VIOTR in % ([12]; 20 g/ha): 80% | Pre-emergence effect at 80 g/ha against VIOTR in % ([12]; 80 g/ha): 100% | Pre-emergence effect at 320 g/ha against VIOTR in % ([12]; 320 g/ha): 100% | Pre-emergence effect at 20 g/ha against AVEFA in % ([13]; 20 g/ha): 80% | Pre-emergence effect at 80 g/ha against AVEFA in % ([13]; 80 g/ha): 90% | Pre-emergence effect at 320 g/ha against AVEFA in % ([13]; 320 g/ha): 100% | Pre-emergence effect at 80 g/ha against AMARE in % ([14]; 80 g/ha): 100% | pest or weed control at 320 g/ha ([14]; Amaranthus retroflexus, 504 h, 320 g/ha, read-out: Pre-emergence effect at 320 g/ha against AMARE in %): 100% | Pre-emergence effect at 320 g/ha against VERPE in % [15]: 80% | Pre-emergence effect at 80 g/ha against LOLRI in % ([16]; 80 g/ha): 90% | Pre-emergence effect at 320 g/ha against LOLRI in % ([16]; 320 g/ha): 100% | Pre-emergence effect at 320 g/ha against ABUTH in % [17]: 90% | Pre-emergence effect at 80 g/ha against ECHCG in % ([18]; 80 g/ha): 90% | pest or weed control at 320 g/ha ([18]; Echinochloa crus-galli, 504 h, 320 g/ha, read-out: Pre-emergence effect at 320 g/ha against ECHCG in %): 100% | Pre-emergence effect at 320 g/ha against DIGSA in % [19]: 80% | Pre-emergence effect at 80 g/ha against PHBPU in % ([20]; 80 g/ha): 90% | Pre-emergence effect at 320 g/ha against PHBPU in % ([20]; 320 g/ha): 90% | Pre-emergence effect at 20 g/ha against POLCO in % ([21]; 20 g/ha): 90% | Pre-emergence effect at 80 g/ha against POLCO in % ([21]; 80 g/ha): 90% | pest or weed control at 320 g/ha ([21]; Fallopia convolvulus, 504 h, 320 g/ha, read-out: Pre-emergence effect at 320 g/ha against POLCO in %): 90%

CCOC(=O)C(OCC)Oc1nn(-c2ncccc2F)c(-c2ccc(F)cc2F)c1Br (stereo not drawn) [Example I-08]
pest or weed control at 320 g/ha [22]: 80% | pest or weed control at 320 g/ha [23]: 90% | pest or weed control at 320 g/ha [24]: 80% | Pre-emergence effect at 80 g/ha against ORYSA in % ([25]; 80 g/ha): 0% | Pre-emergence effect at 320 g/ha against ORYSA in % ([25]; 320 g/ha): 0% | Pre-emergence effect at 80 g/ha against GLXMA in % [3]: 0% | pest or weed control at 320 g/ha [26]: 80% | Pre-emergence effect at 80 g/ha against TRZAS in % [5]: 0% | Pre-emergence effect at 320 g/ha against TRZAS in % [5]: 0% | pest or weed control at 320 g/ha [27]: 80% | Pre-emergence effect at 80 g/ha against ZEAMX in % ([6]; 80 g/ha): 0% | Pre-emergence effect at 320 g/ha against ZEAMX in % [6]: 10%
